Entries after “also recorded” stand apart in the source; their conditions may differ. Positions of bridges follow the written chain, without caps; N, C: chain ends. No end group written: not given here.
System: Erk1/2 (T202/Y204) in rat DRG neurons
Test: High-content imaging of pERK1/2 in DRG sensory neurons
Format: cell-based
Details: for pErk1/2 activation: 5 and 30 min, 0.005 to 0.8 µg/µL; for pErk1/2 response by neuron size: xibalbins 0.8 µg/µL
Experimental: To gauge sensory neuron activity in response to various activating stimuli, including electrical activity, phosphorylation state detection of protein kinase A type II (PKA-II) and MAP kinase Erk1/2 can act as surrogate measurements. Consequently, we tested for increased phosphorylation states in a concentration-dependent manner following exposure to xibalbins. Dissociated DRG neurons were cultured overnight and then exposed to increasing concentrations of the corresponding xibalbins for 5 min and 30 min, respectively. As a positive control, forskolin (Fsk) was also used to induce cAMP synthesis. The activity of PKA-II was monitored by antibodies directed against the phosphorylation site of the inhibitory regulatory subunits RIIα/β, which is exclusively accessible when the catalytic kinase domain is released during kinase activation. For measuring Erk1/2 activity, phospho-sites on Erk1/2 (T202/Y204) were monitored through immunofluorescence, as these sites are phosphorylated during activation. Cellular images were captured using HCI microscopy (Fig. 8A), and the average intensity of each phospho-antibody was quantified (Fig. 8B).
Fig. 8 A Representative images of rat DRG neurons stimulated with PBS (Ctrl) and xib1b (0.8 µg/µL). Cells were stained for UCHL1, pRII, pERK1/2, and Hoechst followed by fixation and staining with standard immunocytochemistry protocols. Green-encircled neurons indicate automatically selected objects. Scale bar: 100 µm. B Mean intensities of UCHL1, pRII, and pERK1/2. The same UCHL1 intensities were observed among tested groups. Forskolin (Fsk), an activator of adenylyl cyclase, was used as a positive control. Fsk at 6 µM concentration induced an increase in pRII and pERK1/2 intensities at 5 and 30 min. Number of analyzed cells per replica: 750 ± 200. Eight independent replicas. C–F Concentration responses of xibalbin toxins (0.005 to 0.8 µg/µL) and mean intensities of pRII and pERK1/2 at 5 min and 30 min. G–H Size versus pRII and pErk1/2 intensities of cells treated with 0.8 µg/µL of xib1 and xib13. Small-sized cells were responding to xibalbins. Statistical significance was assessed using one-way ANOVA with Dunnett’s post hoc test. Data represent mean ± S.E.M (standard error of the mean), n = 4, see “Methods” for details and Additional File 6: Table S2 for individual data values
Male Sprague Dawley rats (250–400 g, 8–16 weeks old) were obtained from Envigo. Rats were kept in 12 h of light/darkness cycles. All experiments were performed in accordance with the German animal welfare law with permission of the District Government for Nature and Environment, NRW (84–02.05.20.13.045, 4.18.003). Rats were scarified by slow inhalation of CO2 which was followed by decapitation. DRGs were extracted from rats, deheated, pooled, and incubated in Neurobasal A/B27 medium (Invitrogen, #12349–015) supplemented with B-27 (Invitrogen #17504), L-glutamine 1:400, L-glutamate 1:270.3, and penicillin/streptomycin 1:100 containing 0.2 U/mL collagenase P (collagenase P, Roche, #1213857) and incubated for 1 h at 37 °C, 5% CO2. DRGs were dissociated with pasteur pipettes and axon stumps were separated by BSA (Sigma-Aldrich, # A2153-100G) gradient centrifugation (14% BSA, 120 g, 8 min). Cells were resuspended in NBA medium, plated in 96-well imaging plate (Greiner BioOne Sensoplate, Black, #655896) precoated with poly-L-ornithine hydrochloride (0.1 mg/ml Sigma, #P2533)/laminin (5 µg/ml Invitrogen, #23017–015), and incubated overnight at 37 °C, 5% CO2.
DRGs were stimulated after overnight incubation. Compounds were prepared as tenfold concentrated stock solutions, diluted in PBS (PAA, cat# H15-002), in v-bottom plates; 50 µL media from culture wells were mixed with the […] stock solutions, and 50 µL added back to the respective wells. Stimulation was performed with automated multichannel pipette and cells were kept in heated block during the stimulation. […]

[1] = 30 min, 0.8 µg/µL (xib13 148 µM, q = 4.32; xib1 154 µM, q = 4.07)

| Sequence | pErk1/2 activation | increase in pErk1/2 signal [1] [fold] | pErk1/2 response by neuron size | increase in pErk1/2 signal (5 min, 0.8 µg/µL (148 µM), q = 4.54) |
| --- | --- | --- | --- | --- |
| RLFCIRHHKYCGHRPKRCCSGLFCRCNTFGTNCRCQSKGALGKLI (disulfide 4-19, 11-24, 18-35, 26-33) [xib1] | increase PKA-II and Erk1/2 sensitization signaling; also recorded: increased PKA-II and pErk1/2 activity | 2.17 | increased phosphorylation signals in both small-sized and large-sized sensory neurons | – |
| KRSCIRRFGRCDHRPNDCCYNSSCRCNLWGSNCRCQRMGLFQKWGK (disulfide 4-19, 11-24, 18-35, 26-33) [xib13] | increase PKA-II and Erk1/2 sensitization signaling; also recorded: increased PKA-II and pErk1/2 activity | ≤ 2.3 | increased phosphorylation signals in both small-sized and large-sized sensory neurons | up to 2.5 fold |

Reference: PMC11288129, “Diversely evolved xibalbin variants from remipede venom inhibit potassium channels and activate PKA-II and Erk1/2 signaling” (BMC Biology, 2024)
